According to ChEMBL document CHEMBL3301361, “Experimental in vitro DMPK and physicochemical data on a set of publicly disclosed compounds”:
In brackets after ≈: the same amount, converted by molar mass.

Key:
physchem [1] = conditions: pH 7.4 buffer
physchem [2] = conditions: octan-1-ol/water

Row | Compound | solubility thermodynamic (physchem [1]) [µM] | logD (physchem [2]; pH 7.4) | logD (physchem [2]; pH 7.4, LogD7.4)
1 | Oc1ccc(-c2ccc(C3(O)CN4CCC3CC4)cc2)cc1 (stereo unspecified) | 436 (≈ 129 µg/mL) | 0.95 | –
2 | Cc1cnc(Nc2ccc(OCC(O)CN(C)C)cc2)nc1Nc1ccccc1 (stereo unspecified) | 724 (≈ 285 µg/mL) | – | 2
3 | CNC(=O)c1ccc(N2C(=S)N(c3ccc(C#N)c(C(F)(F)F)c3)C(=O)C23CCC3)cc1F | 1.6 (≈ 0.762 µg/mL) | 3.3 | –
4 | CN(C)c1cccc2c(S(N)(=O)=O)cccc12 | 23.4 (≈ 5.86 µg/mL) | – | 1.95
5 | Nc1ncc(-c2cnn(C3CCNCC3)c2)cc1-c1nc2ccccc2o1 | 2.3 (≈ 0.829 µg/mL) | – | 1.85
6 | COc1ccc(-c2cc3c(N[C@H]4CCCNC4)ncc(C(N)=O)c3s2)cc1 | 1050 (≈ 401 µg/mL) | – | 1.82
7 | CC(=O)c1noc(C)c1C(=O)Nc1nccs1 | 46.8 (≈ 11.8 µg/mL) | – | 1.94
8 | N#Cc1nc(N2CCOCC2)nc(N2CCOCC2)n1 | 77.6 (≈ 21.4 µg/mL) | 1.51 | –
9 | O=S(=O)(Nc1ccc(S(=O)(=O)Nc2nccs2)cc1)c1ccc2c(c1)OCCO2 | 0.7 (≈ 0.317 µg/mL) | – | 1.97
10 | Nc1nccc(/C=C/c2ccc(Cl)cc2)n1 | 8.7 (≈ 2.02 µg/mL) | 3.5 | –
11 | CSc1ccc(C(=O)C(C)(C)N2CCOCC2)cc1 | 52.5 (≈ 14.7 µg/mL) | 3.49 | –
12 | FC(F)(F)c1nnc2ccc(NCc3cccnc3)nn12 | 380 (≈ 112 µg/mL) | – | 2.06
13 | CC(C)(C)c1cc2nc3c(c(O)n2n1)CN(Cc1ccccc1)C3=O | 25.1 (≈ 8.44 µg/mL) | – | 1.9
14 | Oc1ncnc2scc(-c3ccsc3)c12 | 178 (≈ 41.7 µg/mL) | – | 2.25
15 | CCN(CC)c1ncnc2c1ncn2Cc1c(Cl)cccc1Cl | 2.3 (≈ 0.806 µg/mL) | 1.25 | –
16 | CCc1cccc2c(C#N)cn(CC(=O)NCCOC)c12 | 37.2 (≈ 10.6 µg/mL) | – | 1.95
17 | CCn1c2ccccc2c2cc(NC(C)=O)ccc21 | 5.6 (≈ 1.41 µg/mL) | 3.5 | –
18 | COc1cccc2c(O)cc(-c3ccccc3)nc12 | 224 (≈ 56.3 µg/mL) | – | 2.3
19 | Nc1nc(-c2ccccn2)nc(N)c1Cc1ccccc1F | 170 (≈ 50.1 µg/mL) | – | 2.12
20 | O=S(=O)(Nc1nc(-c2sccc2Cl)cs1)c1cc(Cl)ccc1Cl | 151 (≈ 64.5 µg/mL) | – | 2.11

Row | Compound | solubility thermodynamic (physchem [1]) [µM] | logD (physchem [2]; pH 7.4) | logD (physchem [2]; pH 7.4, LogD7.4)
21 | Cc1ccnc2nc(C(=O)Nc3nccs3)nn12 | 339 (≈ 88.2 µg/mL) | 0.31 | –
22 | CC1(COc2cc(-c3cccc4c(=O)cc(N5CCOCC5)oc34)ccc2NC(=O)CN2CCOCC2)COC1 | 36.3 (≈ 20 µg/mL) | – | 2.2
23 | O=C(Nc1ccccc1-c1ccccc1)OC1CCN(CCCCCCCCCNC[C@H](O)c2ccc(O)c3[nH]c(=O)ccc23)CC1 | 525 (≈ 336 µg/mL) | – | 2.16
24 | CCn1c(SCC(=O)Nc2c(C#N)cnn2-c2ccccc2)nnc1-c1cccs1 | 14.1 (≈ 6.14 µg/mL) | – | 2.1
25 | COc1ccnc(N(C)c2ccnc(Nc3cc(N4CCOCC4)cc(N4CCOCC4)c3)n2)c1 | 51.3 (≈ 24.5 µg/mL) | – | 2.23
26 | Nc1cc(-c2ccccc2)ncn1 | 372 (≈ 63.6 µg/mL) | – | 1.91
27 | CC1C(=O)Nc2ccccc2N1C(=O)c1ccccc1 (stereo unspecified) | 40.7 (≈ 10.8 µg/mL) | – | 2.11
28 | CS(=O)(=O)c1ccc(Oc2ccc(C#C[C@]3(O)CN4CCC3CC4)cc2)cc1 | 457 (≈ 182 µg/mL) | 1.51 | –
29 | O=C(NC1CCCS(=O)(=O)C1)c1ccc(Oc2ccc(C#C[C@]3(O)CN4CCC3CC4)cc2)cc1 (stereo partly specified) | 162 (≈ 80.2 µg/mL) | 1.4 | –
30 | O=C(Nc1nc2c(=O)[nH]cnc2s1)c1ccccc1 | 7.4 (≈ 2.01 µg/mL) | – | 1.94
31 | Cc1cc(S(=O)(=O)Nc2nc(Nc3ccc(Cl)cc3)n[nH]2)c(S)cc1Cl | 87.1 (≈ 37.5 µg/mL) | – | 2.09
32 | Cc1ccc(NC(=O)C2CC2)cc1-n1cnc2ccc(N3CCN(C)CC3)cc2c1=O | 1510 (≈ 632 µg/mL) | – | 2.17
33 | Cc1ccc(C(=O)Nc2ccon2)cc1-n1cnc2ccc(N3CCN(C)CC3)cc2c1=O | 57.5 (≈ 25.6 µg/mL) | – | 1.87
34 | COc1cc2ncnc(Nc3cccc(Cl)c3F)c2cc1CN(C)C1(C(N)=O)CCN(C)CC1 | 282 (≈ 137 µg/mL) | – | 2.16
35 | Cc1cc(CNc2nccc(Nc3cc(C)[nH]n3)n2)on1 | 813 (≈ 232 µg/mL) | – | 1.86
36 | CCCN(CCO)CCCOc1ccc2c(Nc3cc(CC(=O)Nc4cccc(F)c4F)[nH]n3)ncnc2c1 | 5.8 (≈ 3.13 µg/mL) | – | 2.19
37 | CCN(CCO)CCCOc1cc2ncnc(Nc3cc(CC(=O)Nc4cccc(F)c4F)[nH]n3)c2cc1OC | 3 (≈ 1.67 µg/mL) | – | 1.94
38 | O=C(Cc1cc(Nc2ncnc3cc(OCCCN4CCC[C@@H]4CO)ccc23)n[nH]1)Nc1cccc(F)c1F | 141 (≈ 76 µg/mL) | – | 2.06
39 | CCCSc1nc(N2CCC[C@H](CC(=O)O)C2)ccc1C(=O)NC1CCCCC1 | 174 (≈ 72.9 µg/mL) | – | 2.18
40 | CC1(c2nc(N3CCOCC3)ncc2C(=O)N[C@H]2C3CC4CC2C[C@](O)(C4)C3)CC1 | 407 (≈ 168 µg/mL) | – | 2

Row | Compound | solubility thermodynamic (physchem [1]) [µM] | logD (physchem [2]; pH 7.4) | logD (physchem [2]; pH 7.4, LogD7.4)
41 | CCN(CCN(C)C)S(=O)(=O)c1ccc(-c2cnc(N)c(C(=O)Nc3cccnc3)n2)cc1 | 490 (≈ 230 µg/mL) | – | 2
42 | Cc1nc(C)c(-c2ccc3c(c2)CC[C@]32CC[C@@H](Cc3nnn[nH]3)CC2)nc1C(N)=O | 77.6 (≈ 32.4 µg/mL) | – | 2
43 | COc1ccc(C(=O)CS(=O)(=O)c2ccccc2)cc1 | 53.7 (≈ 15.6 µg/mL) | – | 1.96
44 | c1nc(N2CCCCC2)c2nc[nH]c2n1 | 501 (≈ 102 µg/mL) | – | 1.84
45 | O=C(O)c1ccccc1Cn1nnc(-c2cccc(OCc3ccc4ccccc4n3)c2)n1 | 7.8 (≈ 3.41 µg/mL) | – | 2.1
46 | COc1cc(C(=O)O)ccc1Cn1ccc2ccc(NC(=O)OC3CCCC3)cc21 | 186 (≈ 76.1 µg/mL) | – | 2.1
47 | Oc1cc(-c2ccccc2)nc2ccnn12 | 813 (≈ 172 µg/mL) | 1.3 | –
48 | CS(=O)(=O)Nc1cccc(NC(=O)CN2CCN(C(=O)C[C@H](N)Cc3ccc(F)c(F)c3)[C@H](Cc3ccccc3)C2)c1 | 661 (≈ 396 µg/mL) | – | 2.06
49 | Cc1ccc(NC(=O)c2ccnc(N3CCOCC3)c2)cc1Nc1ccnc(OCC(C)(C)CN(C)C)n1 | 490 (≈ 255 µg/mL) | – | 2.2
50 | O=C(CS(=O)(=O)c1ccccc1)c1ccccc1 | 234 (≈ 61 µg/mL) | – | 1.86
51 | COc1cc2c(Nc3cc(CC(=O)Nc4cccc(F)c4F)[nH]n3)ncnc2cc1OCCCN1CCC[C@@H]1CO | 813 (≈ 461 µg/mL) | – | 1.96
52 | CN(CCOc1ccc(C[C@H](Nc2ccccc2C(=O)c2ccccc2)C(=O)O)cc1)c1ccccn1 | 219 (≈ 108 µg/mL) | – | 2.15
53 | COCCOCCOc1ccc(-c2cc(C(N)=O)c(NC(N)=O)s2)cc1 | 20.9 (≈ 7.93 µg/mL) | – | 2.21
54 | Cc1c(Cl)cccc1S(=O)(=O)Nc1nc(CC(=O)N2CCN(C)CC2)cs1 | 1100 (≈ 470 µg/mL) | 0.57 | –
55 | Cc1nc(C)c(C(=O)N[C@@H](Cc2cccc(Cl)c2)C(=O)NCC#N)s1 | 57.5 (≈ 21.7 µg/mL) | – | 2
56 | Cc1nc(-c2ccccc2)c(-c2ccc(CN3CCC(n4c(=O)[nH]c5ccccc54)CC3)cc2)[nH]c1=O | 27.5 (≈ 13.5 µg/mL) | 3.9 | –
57 | CCS(=O)(=O)c1ccc(Oc2cc3nc(-c4ccccn4)[nH]c3cc2CN2C(=O)CCC2=O)cc1 | 30.2 (≈ 14.8 µg/mL) | – | 2
58 | COc1cc(C(=O)NS(=O)(=O)c2ccccc2)ccc1Cn1ccc2ccc(NC(=O)OC3CCCC3)cc21 | 5.1 (≈ 2.79 µg/mL) | – | 2.2
